For eleven compounds, IC50 results are on record in the Kinase Knowledgebase extract (Sharma et al. 2016).

Structures are written as SMILES.

One experiment deals with PIK3CG (human) (UniProt P48736). The experiment in a line: Assessment of PIK3CG Kinase Activity.
The next experiment deals with PIK3CA (human) (UniProt P42336). Nature of the experiment: Assessment of PIK3CA Kinase Activity.
Sequence of PIK3CA (human) (P42336 whole entry, looked up): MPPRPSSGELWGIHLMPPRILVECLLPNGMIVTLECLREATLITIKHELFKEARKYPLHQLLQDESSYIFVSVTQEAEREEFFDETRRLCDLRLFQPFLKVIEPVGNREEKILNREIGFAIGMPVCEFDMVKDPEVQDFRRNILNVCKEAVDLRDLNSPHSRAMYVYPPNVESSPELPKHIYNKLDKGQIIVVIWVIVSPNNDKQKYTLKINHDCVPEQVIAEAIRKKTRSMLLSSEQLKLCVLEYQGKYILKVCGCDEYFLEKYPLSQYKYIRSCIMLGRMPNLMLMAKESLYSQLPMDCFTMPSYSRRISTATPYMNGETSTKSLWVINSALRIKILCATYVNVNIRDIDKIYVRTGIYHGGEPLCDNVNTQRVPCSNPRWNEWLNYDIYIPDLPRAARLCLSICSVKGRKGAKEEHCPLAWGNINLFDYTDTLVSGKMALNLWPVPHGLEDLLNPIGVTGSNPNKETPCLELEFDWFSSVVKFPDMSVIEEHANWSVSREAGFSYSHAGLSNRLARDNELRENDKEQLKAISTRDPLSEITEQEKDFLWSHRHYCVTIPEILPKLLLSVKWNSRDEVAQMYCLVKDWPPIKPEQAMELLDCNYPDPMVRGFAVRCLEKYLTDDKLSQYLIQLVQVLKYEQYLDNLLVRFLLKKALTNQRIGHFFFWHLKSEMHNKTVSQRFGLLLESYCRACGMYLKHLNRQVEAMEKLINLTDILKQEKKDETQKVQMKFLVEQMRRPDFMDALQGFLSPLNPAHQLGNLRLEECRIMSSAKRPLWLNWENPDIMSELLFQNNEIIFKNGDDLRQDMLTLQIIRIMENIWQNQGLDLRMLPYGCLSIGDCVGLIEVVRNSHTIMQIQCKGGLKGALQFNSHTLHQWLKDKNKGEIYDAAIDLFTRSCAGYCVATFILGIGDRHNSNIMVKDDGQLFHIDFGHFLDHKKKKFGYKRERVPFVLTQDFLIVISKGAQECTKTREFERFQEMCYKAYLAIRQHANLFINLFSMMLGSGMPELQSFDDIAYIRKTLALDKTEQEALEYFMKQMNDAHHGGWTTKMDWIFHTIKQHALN

Sequence of PIK3CG (human) (P48736 whole entry, looked up): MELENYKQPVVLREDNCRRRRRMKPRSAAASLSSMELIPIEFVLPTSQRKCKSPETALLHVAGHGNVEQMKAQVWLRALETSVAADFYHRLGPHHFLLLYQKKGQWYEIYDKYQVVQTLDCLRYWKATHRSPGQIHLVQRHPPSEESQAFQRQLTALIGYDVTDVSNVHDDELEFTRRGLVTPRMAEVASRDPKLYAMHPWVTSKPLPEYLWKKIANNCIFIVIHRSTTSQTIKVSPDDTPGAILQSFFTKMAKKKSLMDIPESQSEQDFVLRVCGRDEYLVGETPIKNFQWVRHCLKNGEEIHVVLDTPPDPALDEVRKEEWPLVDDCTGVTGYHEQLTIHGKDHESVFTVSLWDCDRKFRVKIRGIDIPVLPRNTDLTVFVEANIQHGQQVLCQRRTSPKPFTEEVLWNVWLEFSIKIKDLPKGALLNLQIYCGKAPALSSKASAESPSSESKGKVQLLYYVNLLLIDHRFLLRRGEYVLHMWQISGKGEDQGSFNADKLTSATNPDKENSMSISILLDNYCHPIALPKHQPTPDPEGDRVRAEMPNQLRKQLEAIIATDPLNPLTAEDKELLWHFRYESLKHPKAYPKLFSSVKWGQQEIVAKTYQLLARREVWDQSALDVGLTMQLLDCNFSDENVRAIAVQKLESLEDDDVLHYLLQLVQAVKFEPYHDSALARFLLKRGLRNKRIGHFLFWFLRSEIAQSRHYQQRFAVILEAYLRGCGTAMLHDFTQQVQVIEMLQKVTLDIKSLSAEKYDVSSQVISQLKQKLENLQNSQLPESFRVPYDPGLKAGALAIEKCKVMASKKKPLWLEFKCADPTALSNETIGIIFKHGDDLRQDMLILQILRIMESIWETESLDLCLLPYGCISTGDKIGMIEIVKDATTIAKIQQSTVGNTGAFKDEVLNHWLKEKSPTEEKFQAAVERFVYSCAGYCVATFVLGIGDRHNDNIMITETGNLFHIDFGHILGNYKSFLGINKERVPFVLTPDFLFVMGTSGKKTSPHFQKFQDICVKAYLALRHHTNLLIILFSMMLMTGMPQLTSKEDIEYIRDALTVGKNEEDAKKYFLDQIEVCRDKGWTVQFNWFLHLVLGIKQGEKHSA

For orientation: IC50 means the concentration that gives 50% inhibition. Read a high IC50 as weaker potency in that assay. For the compound `CCn1ncc2c(N3CC4CCC(C3)O4)nc(-c3ccc(NC(=O)NC(=O)CNCCN(C)C)cc3)nc21`, the IC50 against PIK3CG (human) turned out to be 0.494 µM; against PIK3CA (human) it was 0.311 µM.

Take `CC(=O)Nc1ccc(NC(=O)Nc2ccc(-c3nc(N4CC5CCC(C4)O5)c4cnn(C)c4n3)cc2)cc1`: the IC50 on PIK3CG (human) worked out at 2.72 µM; on PIK3CA (human), 1.05 µM.

Consider `O=C(Nc1ccc(-c2nc(N3CC4CCC(C3)O4)c3sccc3n2)cc1)NC1CC1`, for which the IC50 on PIK3CG (human) is 10 µM.

With `CN(C)CC(=O)Nc1ccc(NC(=O)Nc2ccc(-c3nc(N4CC5CCC(C4)O5)c4cnn(C)c4n3)cc2)cc1`, the results for the IC50 on PIK3CG (human) and on PIK3CA (human) were 1.41 µM and 0.346 µM, respectively.

With `O=C(Nc1ccncc1)Nc1ccc(-c2nc(N3CC4CCC(C3)O4)c3cnn([C@H]4CC[C@]5(CCCO5)CC4)c3n2)cc1`, the IC50 on PIK3CG (human) is 2.22 µM.

The compound `CN1CCN(c2ccc(NC(=O)Nc3ccc(-c4nc(N5CC6CCC(C5)O6)c5cnn([C@H]6CC[C@]7(CCCO7)CC6)c5n4)cc3)cc2)CC1` yielded an IC50 against PIK3CG (human) of 1.45 µM.

For the compound `O=C(Nc1ccc(-c2nc(N3CC4CCC(C3)O4)c3cnn([C@H]4CC[C@]5(CCCO5)CC4)c3n2)cc1)OCCO`, on PIK3CG (human), the IC50 was determined as 2.06 µM.

For the compound `O=C(NCCO)Nc1ccc(-c2nc(N3CC4CCC(C3)O4)c3sccc3n2)cc1`, the IC50 at PIK3CG (human) was determined as 10 µM.

On to `O=C(Nc1ccc(-c2nc(N3CC4CCC(C3)O4)c3cnn([C@H]4CC[C@]5(CCCO5)CC4)c3n2)cc1)Nc1ccc(N2CCNCC2)cc1`, for which the IC50 against PIK3CG (human) is 2.02 µM.

Regarding `CCn1ncc2c(N3CC4CCC(C3)O4)nc(-c3ccc(NC(=O)NC(=O)CCNCCN(C)C)cc3)nc21`, the values for the IC50 at PIK3CG (human) and at PIK3CA (human) were 8.11 µM and 1.83 µM, respectively.

On to `COC1CCC(n2ncc3c(N4CC5CCC(C4)O5)nc(-c4ccc(NC(=O)Nc5ccncc5)cc4)nc32)CC1` (stereo not given), for which the IC50 against PIK3CG (human) amounted to 0.825 µM. In other words, the sub-micromolar range.
